Reference: patent US4120864A, “1,2,4-4H-triazole derivatives” (Rohm and Haas Company, priority 1972, dated 1978)
Counter-ions that a name gives are not always drawn. Like-named read-outs stand apart in the source and are kept apart here.

Assays:
Botrytis cinerea = settings: in vivo
Phytophthora infestans = format: in vivo; settings: foliar application at 1200 ppm or root uptake from treated soil containing 20 ppm
[1] = tested on: rice blast, Piricularia oryzae; format: in vivo; settings: foliar application, 1200 ppm
[2] = tested on: wheat leaf rust, Puccinia recondita; assay: whole plant or invertebrate; format: in vivo; settings: foliar; for pest or weed control at 280.212 g/ha: read-out: % Control (without rain), foliar, 0.25 lb.; for pest or weed control at 1120.85 g/ha: read-out: % Control (without rain), foliar, 1 lb.
[3] = tested on: wheat leaf rust, Puccinia recondita; assay: whole plant or invertebrate; format: in vivo; settings: foliar; for pest or weed control at 280.212 g/ha: read-out: % Control (with 1" of rain), foliar, 0.25 lb., 1" of rain; for pest or weed control at 1120.85 g/ha: read-out: % Control (with 1" of rain), foliar, 1 lb., 1" of rain
[4] = tested on: leaf rust on winter wheat; assay: Systemic field test, leaf rust on winter wheat; format: in vivo; settings: 46 days after application, untreated 1109
[5] = tested on: leaf rust on spring wheat; assay: Systemic field test, leaf rust on spring wheat; format: in vivo; settings: 36 days after treatment
[6] = tested on: wheat leaf rust, Puccinia recondita; format: in vivo
[7] = tested on: wheat leaf rust, Puccinia recondita; assay: Foliar systemic activity on leaf rust; format: in vivo
Source text: Another type of systemic test was run in which pots of approximately 5 inch high wheat plants were sprayed with varying concentrations of the test compound. Thirty-six hours later they were sprayed six minutes in a rain machine which amounted to about one inch of normal rainfall. The plants were then placed in a greenhouse for 7 days and then inoculated with a spore suspension of wheat leaf rust, Puccinia recondita. About 7 days later lesion counts were made on ten leaves representing the sprayed leaves and new growth from each replicate and compared with similar pots of wheat plants which were untreated with a chemical and the percent disease control determined. Disease control on the new growth is a measure of systemic activity. The commercial product known by the trademarked name Plantvax, which is 2,3-dihydro-5-carboxanilido-6-methyl-1,4-oxathiin-4,4-dioxide, was used as a standard.

Row | Molecule | pest or weed control at 280.212 g/ha [2] | pest or weed control at 1120.85 g/ha [2] | pest or weed control at 280.212 g/ha [3] | pest or weed control at 1120.85 g/ha [3] | % Systemic Wheat Leaf Rust Control ([6]; 2.5 ppm in soil) | % Systemic Wheat Leaf Rust Control ([6]; 5 ppm in soil) | % Systemic Wheat Leaf Rust Control ([6]; 10 ppm in soil) | % Rust Control, New growth ([7]; 1/2 lb./100 gal.) | % Rust Control, Sprayed Leaf ([7]; 1/2 lb./100 gal.) | % Rust Control, New growth ([7]; 1/6 lb./100 gal.) | % Rust Control, Sprayed Leaf ([7]; 1/6 lb./100 gal.) | % Rust Control, New growth ([7]; 1/12 lb./100 gal.) | % Rust Control, Sprayed Leaf ([7]; 1/12 lb./100 gal.) | also measured
1 | 4-(2-ethylhexyl)-1,2,4-triazole [Example 11] | – | – | – | – | – | – | – | – | – | – | – | – | – | control of Botrytis cinerea on broad bean (Botrytis cinerea): 50-85%
2 | CCCCCCCCn1cnnc1 [Example 10, 4-n-octyl-1,2,4-triazole] | – | – | – | – | – | – | – | – | – | – | – | – | – | control of Phytophthora infestans (Phytophthora infestans): good control
3 | CCCCCCCCCCCCn1cnnc1 [Example 13, 4-n-dodecyl-1,2,4-triazole] | 20% | 60% | 0% | 30% | – | – | – | – | – | – | – | – | – | control of rice blast, Piricularia oryzae [1]: 95-100%
4 | OCCCn1cnnc1 [Example 18, 4-(3-hydroxypropyl)-1,2,4-triazole] | 0% | 0% | 0% | 0% | – | – | – | – | – | – | – | – | – | control of Phytophthora infestans (Phytophthora infestans): good control
5 | CCOCCn1cnnc1 [Example 24, 4-(2-ethoxyethyl)-1,2,4-triazole] | 80% | 95% | 50% | 95% | – | – | – | – | – | – | – | – | – | control of Phytophthora infestans (Phytophthora infestans): good control
6 | c1ccc(OCCn2cnnc2)cc1 [Example 25, 4-(2-phenoxyethyl)-1,2,4-triazole] | 0% | 0% | 0% | 0% | – | – | – | – | – | – | – | – | – | control of Phytophthora infestans (Phytophthora infestans): good control
7 | CCOCCCn1cnnc1 [Example 47] | 80% | 80% | 30% | 55% | – | – | – | – | – | – | – | – | – | control of Phytophthora infestans (Phytophthora infestans): good control
8 | CCCCn1cnnc1S [Example 76, 3-mercapto-4-n-butyl-1,2,4-triazole] | 100% | 100% | 100% | 100% | 83% | 97% | 100% | 90% | 97% | 77% | 88% | 75% | 80% | No. of lesions/800 leaves ([4]; 0.5 lbs./acre): 453 lesions/800 leaves; No. of lesions/800 leaves ([4]; 1 lbs./acre): 239 lesions/800 leaves; No. of lesions/800 leaves ([4]; 2 lbs./acre): 89 lesions/800 leaves; % Leaves infected ([5]; 0.5 lbs./acre): 23%; % Leaves infected ([5]; 1 lbs./acre): 10%; % Leaves infected ([5]; 2 lbs./acre): 4%
9 | CCCCn1c(S)nnc1C(=O)O [Example 94, 3-mercapto-4-n-butyl-5-carboxy-1,2,4-triazole] | 100% | 100% | 82% | 83% | 95% | 99% | 100% | 86% | 99% | 73% | 91% | 61% | 71% | % Leaves infected ([5]; 0.5 lbs./acre): 35%; % Leaves infected ([5]; 1 lbs./acre): 17%; % Leaves infected ([5]; 2 lbs./acre): 7%
10 | CCCCn1c(S)nnc1C(=O)OCC [Example 97] | 100% | 100% | 100% | 100% | 93% | 95% | 100% | 54% | 86% | 75% | 73% | 67% | 81% | –
11 | CCCCn1c(SC(=O)NC)nnc1C(=O)O [Example 99, 3-methylcarbamoylmercapto-4-n-butyl 5-carboxy-1,2,4-triazole] | 99% | 99% | 100% | 100% | 96% | 99% | 100% | 82% | 69% | 69% | 74% | 56% | 81% | –
12 | CCCCn1c(SC(=O)NC)nnc1C(=O)O [Example 100, triethanolamine salt of 3 methyl-carbamoylmercapto-4-n-butyl-5-carboxy-1,2,4-triazole] | – | – | – | – | 89% | 99% | 99% | 79% | 79% | 63% | 79% | 54% | 57% | % Control (without rain) ([2]; 0.25 lb.): 100%; % Control (without rain) ([2]; 1 lb.): 100%; % Control (with 1" of rain) ([3]; 0.25 lb.): 100%; % Control (with 1" of rain) ([3]; 1 lb.): 100%
13 | CCCCn1cnnc1SCCOCC [Example 107, 3-(2-ethoxyethylmercapto)-4-n-butyl-1,2,4-triazole] | 100% | 100% | 100% | 100% | 52% | 85% | 89% | 61% | 73% | 23% | 27% | 17% | 25% | –
14 | CCCCn1cnnc1SCC(N)=O [Example 111, 3-carbamoylmethylmercapto-4-n butyl-1,2,4-triazole] | 100% | 100% | 93% | 100% | 76% | 91% | 92% | 88% | 88% | 59% | 51% | 38% | 49% | –
15 | CCCCn1cnnc1SC(=O)NC [Example 114, 3-methylcarbamoylmercapto-4-n-butyl-1,2,4-triazole] | 100% | 100% | 100% | 100% | 96% | 100% | 100% | 98% | 96% | 79% | 83% | 67% | 68% | –
16 | CCCCn1cnnc1Sc1ccc([N+](=O)[O-])cc1[N+](=O)[O-] [Example 127, 3-(2,4-dinitrophenylmercapto)-4-n-butyl-1,2,4-triazole] | 100% | 100% | – | 100% | 67% | 94% | 100% | 81% | 98% | 69% | 93% | 57% | 81% | –
17 | CC1=C(C(=O)Nc2ccccc2)S(=O)(=O)CCO1 [Plantvax, 2,3-dihydro-5-carboxanilido-6-methyl-1,4-oxathiin-4,4-dioxide, reference compound] | – | – | – | – | – | – | – | 38% | 49% | 32% | 37% | – | 3% | No. of lesions/800 leaves ([4]; 0.5 lbs./acre): 1113 lesions/800 leaves; No. of lesions/800 leaves ([4]; 1 lbs./acre): 1017 lesions/800 leaves; No. of lesions/800 leaves ([4]; 2 lbs./acre): 690 lesions/800 leaves; % Leaves infected ([5]; 0.5 lbs./acre): 79%; % Leaves infected ([5]; 1 lbs./acre): 78%; % Leaves infected ([5]; 2 lbs./acre): 75%
